# pIC50: −log10 of the molar value.
# What was measured:
# [1] = target: T1, yeast Gal4-DNA binding domain fused to the ligand binding domain of human RORγ (Homo sapiens, UniProt P51449); experiment: RORγ Reporter Assay (Gal4); format: cell-based; conditions: values given as lower bounds of ranges; for Gal4 activity range @ 1 μM (% inhibition): RORγ Reporter Assay (Gal4) at 1 μM; for Gal4 activity range @ 0.1 μM (% inhibition): RORγ Reporter Assay (Gal4) at 0.1 μM
# T1 construct: host or cells: HEK293t
# T1 sequence (P51449 269-508 limits assumed): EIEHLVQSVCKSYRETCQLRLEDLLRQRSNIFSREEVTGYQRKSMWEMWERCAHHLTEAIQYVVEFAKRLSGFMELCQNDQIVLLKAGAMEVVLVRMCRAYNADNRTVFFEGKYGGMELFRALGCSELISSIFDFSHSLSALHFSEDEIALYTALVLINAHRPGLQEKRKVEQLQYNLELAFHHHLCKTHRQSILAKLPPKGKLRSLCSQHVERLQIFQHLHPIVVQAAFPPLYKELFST
# Description: (§1) The activity of the compounds was evaluated using a Fluorescence Polarization (FP) Assay and, in most cases, a Th17 Assay and/or RORγ Reporter assay (also referred to as Gal4 assay). The FP assay is an in vitro assay monitoring binding within the ligand binding pocket. The RORγ and the Th17 assays are both cell-based assays monitoring functional activity of the compound assayed.
# Cell-based RORγ functional assays were performed using a commercially available assay product (INDIGO Biosciences, State College, Pa., USA; product # IB04001). The RORγ reporter cells are HEK293t cells transfected with one vector that provides high level constitutive expression of a hybrid protein comprised of the yeast Gal4-DNA binding domain fused to the ligand binding domain of human RORγ, and a second vector comprising the firefly luciferase cDNA functionally linked to the upstream activation sequence (UAS) of yeast Gal4. A suspension of RORγ Reporter Cells was prepared using the protocol and culture medium provided in the kit product, and 100 μl of the Reporter Cell suspension was then dispensed into wells of a white, collagen-treated, 96-well assay plate. Concentrated stocks of test compounds were prepared in DMSO, then further diluted using media provided in the kit to generate ‘2×-concentration’ treatment media. 100 μl of medium for each respective treatment concentration dispensed into triplicate assay wells, thereby combining with the reporter cells. All media formulations contained 10% charcoal stripped Fetal Bovine Serum, but are otherwise proprietary to INDIGO Biosciences. Final treatment concentrations for each test compound were 1,000 nM and 100 nM, each with 0.1% residual DMSO. Separate control treatments were media supplemented with vehicle only (0.1% DMSO) to determine the constitutive level of RORγ activity in the reporter cells, and the reference inverse-agonist ursolic acid (f.c. 6,000 nM to 8.2 nM in 3-fold decrements) to establish a positive control inverse-agonist dose response. Assay plates were placed in a 37° C., 5% CO2, 85% humidity incubator for 24 hour. Treatment media were then discarded, 100 μl of luciferase detection reagent was added to each well, and relative light units (RLUs) were quantified from each assay well using a plate reading luminometer. Values of average RLU+/−standard deviation were computed for all treatment sets, followed by the calculations of fold-reduction: [Average RLUVehicle/Average RLUTest Cmpd]. Percent-reduction of RORγ activity in response to respective test compound treatments was calculated: [100*(1−[Ave RLUTest Cmpd/Ave RLUVehicle)] where the theoretical minimum reduction (0% reduction) derives from Vehicle treatment only, no treatment compound.
# [2] = target: T2, human RORγt (Ligand Binding Domain) (Homo sapiens, UniProt P51449); experiment: Fluorescence Polarization (FP) Assay; conditions: Fluorescence Polarization (FP) Assay; values given as upper bounds of activity ranges; read-out: FP activity range
# T2 construct: purchased Crelux (Planegg, Germany) batch no PC5032-1
# T2 sequence (P51449 269-508 limits assumed): T1 sequence (P51449 269-508 limits assumed)
# Description: as §1
# The total volume was 25 μl, in a black Perkin Elmer OptiPlate. As negative control, 1 μl DMSO was used. […] The probe is a fluorescently labeled (TAMRA) RORγt ligand identified by Nuevolution with a total molecular weight of 910 g/mole as shown in Graph A in FIG. 1.
Compound,Gal4 activity range @ 1 μM (% inhibition) [1] [% inhibition],pIC50 [2],Gal4 activity range @ 0.1 μM (% inhibition) [1] [% inhibition]
"Cc1nc(N[C@H](CC(C)(C)C)C(N)=O)c(C)c(N2CCCC2c2ccc(C(F)(F)F)cc2)n1 (stereo partly drawn) [Example 15, (2R)-2-[[2,5-dimethyl-6-[2-[4-(trifluoromethyl)phenyl]pyrrolidin-1-yl]pyrimidin-4-yl]amino]-4,4-dimethyl-pentanamide]",–,> 5.00,–
"OCc1cccc(CNc2ncnc(N3CCC[C@@H]3c3ccc(C(F)(F)F)cc3)c2F)c1 [Example 217, [3-[[[5-fluoro-6-[(2R)-2-[4-(trifluoromethyl)phenyl]pyrrolidin-1-yl]pyrimidin-4-yl]amino]methyl]phenyl]methanol]",–,> 5.00,–
"CC(C)C[C@@H](Nc1ncnc(N2CC(C)CC2c2ccc(C(F)(F)F)cc2)c1F)C(N)=O (stereo partly drawn) [Example 34, (2R)-2-[[5-fluoro-6-[4-methyl-2-[4-(trifluoromethyl)phenyl]pyrrolidin-1-yl]pyrimidin-4-yl]amino]-4-methyl-pentanamide]",–,> 6.00,–
"[O-][n+]1ccc(CNc2ncnc(N3CCC[C@@H]3c3ccc(C(F)(F)F)cc3)c2F)cc1 [Example 194, 5-fluoro-N-[(1-oxidopyridin-1-ium-4-yl)methyl]-6-[(2R)-2-[4-(trifluoromethyl)phenyl]pyrrolidin-1-yl]pyrimidin-4-amine]",–,> 5.70,–
"COC(=O)Cc1ccc(CNc2ncnc(N3CCCC3c3ccc(C(F)(F)F)cc3)c2F)cc1 (stereo not shown) [Example 70, methyl 2-[4-[[[5-fluoro-6-[2-[4-(trifluoromethyl)phenyl]pyrrolidin-1-yl]pyrimidin-4-yl]amino]methyl]phenyl]acetate]",–,> 5.70,–
"Cc1ccc(CNc2ncnc(N3CCCC3c3ccc(C(F)(F)F)cc3O)c2F)cn1 (stereo not shown) [Example 104, 2-[1-[5-fluoro-6-[(6-methyl-3-pyridyl)methylamino]pyrimidin-4-yl]pyrrolidin-2-yl]-5-(trifluoromethyl)pheno1]",>20,–,>0
"Cc1ccc(CNc2ncnc(-n3nncc3-c3ccc(C(F)(F)F)cc3)c2F)cn1 [Example 96, 5-fluoro-N-[(6-methyl-3-pyridyl)methyl]-6-[5-[4-(trifluoromethyl)phenyl]triazol-1-yl]pyrimidin-4-amine]",>20,–,>0
"Cc1nc(CNc2ncnc(N3CCCC3c3ccc(C(F)(F)F)cc3)c2F)ccc1C(C)O (stereo not shown) [Example 112, 1-[6-[[[5-fluoro-6-[2-[4-(trifluoromethyl)phenyl]pyrrolidin-1-yl]pyrimidin-4-yl]amino]methyl]-2-methyl-3-pyridyl]ethanol]",>20,–,>0
"NC(=O)Cc1ccc(CNc2ncnc(N3CCCC3c3ccccc3)c2F)cc1 (stereo not shown) [Example 279, 2-[4-[[[5-fluoro-6-(2-phenylpyrrolidin-1-yl)pyrimidin-4-yl]amino]methyl]phenyl]acetamide]",>50,–,>20
"NC(=O)Cc1ncc(COc2ncnc(N3CCCC3c3ccc(C(F)(F)F)cc3)c2F)cn1 (stereo not shown) [Example 86, 2-[5-[[5-fluoro-6-[2-[4-(trifluoromethyl)phenyl]pyrrolidin-1-yl]pyrimidin-4-yl]oxymethyl]pyrimidin-2-yl]acetamide]",>20,–,–
"NC(=O)Cc1ncc(CNc2ncnc(N3CCCC3c3ccc(C(F)(F)F)cc3)c2F)cn1 (stereo not shown) [Example 87, 2-[5-[[[5-fluoro-6-[2-[4-(trifluoromethyl)phenyl]pyrrolidin-1-yl]pyrimidin-4-yl]amino]methyl]pyrimidin-2-yl]acetamide]",>20,–,–
"NC(=O)Cc1ccc(COc2ncnc(N3CCCC3c3ccc(C(F)(F)F)nc3)c2F)cc1 (stereo not shown) [Example 84, 2-[4-[[5-fluoro-6-[2-[6-(trifluoromethyl)-3-pyridyl]pyrrolidin-1-yl]pyrimidin-4-yl]oxymethyl]phenyl]acetamide]",>20,–,–
"O=C(O)Cc1ccc(CNc2ncnc(N3CCC[C@@H]3c3ccc(C(F)(F)F)cc3)c2F)cc1 [Example 117, 2-[4-[[[5-fluoro-6-[(2R)-2-[4-(trifluoromethyl)phenyl]pyrrolidin-1-yl]pyrimidin-4-yl]amino]methyl]phenyl]acetic acid]",–,–,>50

# Other lines, results leading:
Gal4 activity range @ 1 μM (% inhibition) [1] [% inhibition],pIC50 [2],Gal4 activity range @ 0.1 μM (% inhibition) [1] [% inhibition],Compound
>20,–,–,"O=C1CCCN1Cc1ccc(CNc2ncnc(N3CCCC3c3ccc(C(F)(F)F)cc3)c2F)cc1 (stereo not shown) [Example 124, 1-[[4-[[[5-fluoro-6-[2-[4-(trifluoromethyl)phenyl]pyrrolidin-1-yl]pyrimidin-4-yl]amino]methyl]phenyl]methyl] pyrrolidin-2-one]"
–,> 5.00,–,"CS(=O)(=O)NC1CCN(c2ncnc(N3CCOC[C@@H]3c3ccc(C(F)(F)F)cc3)c2F)CC1 [Example 297, N-[1-[5-fluoro-6-[(3 S)-3-[4-(trifluoromethyl)phenyl]morpholin-4-yl]pyrimidin-4-yl]-4-piperidyl]methanesulfonamide]"
–,> 6.30,–,"O=S1(=O)CCC(CNc2ncnc(N3CCC[C@@H]3c3ccc(C(F)(F)F)cc3)c2F)C1 (stereo partly drawn) [Example 184, N-[(1,1-dioxothiolan-3-yl)methyl]-5-fluoro-6-[(2R)-2-[4-(trifluoromethyl)phenyl]pyrrolidin-1-yl]pyrimidin-4-amine]"
–,> 6.00,–,"CC(C)(C)C[C@@H](Nc1ncnc(N2CCC[C@@H]2c2ccc(C(F)(F)F)cc2)c1F)C(=O)O [Example 325, (2R)-2-[[5-fluoro-6-[(2R)-2-[4-(trifluoromethyl)phenyl]pyrrolidin-1-yl]pyrimidin-4-yl]amino]-4,4-dimethyl-pentanoic acid]"
–,> 5.00,–,"Cc1cnc(CNc2ncnc(N3CCCC3c3ccc(C(F)(F)F)cc3)c2F)o1 (stereo not shown) [Example 213, 5-fluoro-N-[(5-methyloxazol-2-yl)methyl]-6-[2-[4-(trifluoromethyl)phenyl]pyrrolidin-1-yl]pyrimidin-4-amine]"
–,> 5.70,–,"O=C1CCCN1c1cccc(CNc2ncnc(N3CCCC3c3ccc(C(F)(F)F)cc3)c2F)c1 (stereo not shown) [Example 143, 1-[3-[[[5-fluoro-6-[2-[4-(trifluoromethyl)phenyl]pyrrolidin-1-yl]pyrimidin-4-yl]amino]methyl]phenyl]pyrrolidin-2-one]"
–,> 5.00,–,"NC(=O)C1(CNc2ncnc(N3CCOC[C@@H]3c3ccc(C(F)(F)F)cc3)c2F)CCCC1 [Example 249, 1-[[[5-fluoro-6-[(3S)-3-[4-(trifluoromethyl)phenyl]morpholin-4-yl]pyrimidin-4-yl]amino]methyl] cyclopentanecarboxamide]"
>50,–,>20,"O=C(c1ccncc1)N1CCC(Nc2ncnc(N3CCCC3c3ccc(C(F)(F)F)cc3)c2F)C1 (stereo not shown) [Example 121, [3-[[5-fluoro-6-[2-[4-(trifluoromethyl)phenyl]pyrrolidin-1-yl]pyrimidin-4-yl]amino]pyrrolidin-1-yl]-(4-pyridyl)methanone]"
>50,–,>20,"COc1nc(C)ccc1CNc1ncnc(N2CCCC2c2ccc(C(F)(F)F)cc2)c1F (stereo not shown) [Example 99, 5-fluoro-N-[(2-methoxy-6-methyl-3-pyridyl)methyl]-6-[2-[4-(trifluoromethyl)phenyl]pyrrolidin-1-yl]pyrimidin-4-amine]"
